One block for each compound: values may come before it.
Legend:
[1] = target: T1, Adrenergic receptor alpha-2 (Rattus norvegicus, UniProt P22086+P19328+P22909); assay: Inhibition of rat Alpha-2 adrenergic receptor by cell based functional assay
T1 sequence (P22086 whole entry): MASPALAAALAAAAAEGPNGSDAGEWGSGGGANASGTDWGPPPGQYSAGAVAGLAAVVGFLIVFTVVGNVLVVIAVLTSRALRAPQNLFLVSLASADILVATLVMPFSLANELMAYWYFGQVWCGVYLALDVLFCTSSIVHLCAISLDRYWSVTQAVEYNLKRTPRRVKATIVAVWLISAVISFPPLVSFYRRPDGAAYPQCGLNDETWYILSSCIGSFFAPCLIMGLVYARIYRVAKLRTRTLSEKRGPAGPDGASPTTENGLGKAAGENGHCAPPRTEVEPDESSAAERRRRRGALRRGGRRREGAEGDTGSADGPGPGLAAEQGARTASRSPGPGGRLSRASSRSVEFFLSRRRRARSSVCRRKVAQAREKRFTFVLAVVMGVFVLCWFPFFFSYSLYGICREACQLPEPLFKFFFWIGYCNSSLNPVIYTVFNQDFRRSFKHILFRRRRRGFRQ
T1 sequence (P19328 whole entry): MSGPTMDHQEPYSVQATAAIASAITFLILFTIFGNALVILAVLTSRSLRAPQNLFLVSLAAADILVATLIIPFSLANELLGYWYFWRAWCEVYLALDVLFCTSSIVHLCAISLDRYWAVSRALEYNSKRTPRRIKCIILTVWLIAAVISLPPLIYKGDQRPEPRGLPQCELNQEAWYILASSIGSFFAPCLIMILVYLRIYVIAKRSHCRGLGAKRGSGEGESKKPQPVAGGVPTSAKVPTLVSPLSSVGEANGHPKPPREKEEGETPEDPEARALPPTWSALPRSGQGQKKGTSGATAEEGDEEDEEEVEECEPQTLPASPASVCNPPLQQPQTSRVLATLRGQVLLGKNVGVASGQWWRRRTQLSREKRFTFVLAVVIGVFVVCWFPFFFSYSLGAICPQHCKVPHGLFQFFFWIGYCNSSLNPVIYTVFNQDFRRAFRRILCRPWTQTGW
T1 sequence (P22909 whole entry): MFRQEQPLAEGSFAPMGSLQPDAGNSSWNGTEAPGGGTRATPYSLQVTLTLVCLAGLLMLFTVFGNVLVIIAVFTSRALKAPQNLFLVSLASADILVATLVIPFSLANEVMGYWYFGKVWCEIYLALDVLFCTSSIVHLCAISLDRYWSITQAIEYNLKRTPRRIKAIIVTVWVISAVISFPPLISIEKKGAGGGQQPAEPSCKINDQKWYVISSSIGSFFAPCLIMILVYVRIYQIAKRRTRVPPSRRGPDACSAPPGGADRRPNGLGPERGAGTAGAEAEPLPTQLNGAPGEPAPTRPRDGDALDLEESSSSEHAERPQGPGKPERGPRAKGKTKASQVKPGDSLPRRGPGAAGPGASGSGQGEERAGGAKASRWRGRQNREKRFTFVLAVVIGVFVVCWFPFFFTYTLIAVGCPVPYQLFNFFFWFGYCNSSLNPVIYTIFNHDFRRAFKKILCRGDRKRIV

[2] = target: T2, Muscarinic acetylcholine receptor M1 (Homo sapiens, UniProt P11229); assay: Inhibition of human muscarinic M1 receptor by cell based functional assay
T2 sequence (P11229 whole entry): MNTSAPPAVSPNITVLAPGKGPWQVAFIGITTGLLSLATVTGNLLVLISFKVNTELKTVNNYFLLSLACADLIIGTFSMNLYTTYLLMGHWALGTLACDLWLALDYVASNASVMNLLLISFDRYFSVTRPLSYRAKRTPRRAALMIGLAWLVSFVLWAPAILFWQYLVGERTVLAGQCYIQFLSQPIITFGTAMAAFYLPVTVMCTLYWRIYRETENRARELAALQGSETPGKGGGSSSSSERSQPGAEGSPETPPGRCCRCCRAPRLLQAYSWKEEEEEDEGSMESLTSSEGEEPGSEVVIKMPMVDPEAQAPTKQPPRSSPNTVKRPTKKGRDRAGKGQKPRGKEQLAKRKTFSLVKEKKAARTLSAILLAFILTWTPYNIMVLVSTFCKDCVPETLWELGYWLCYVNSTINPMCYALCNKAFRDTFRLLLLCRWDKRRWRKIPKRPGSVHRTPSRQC

[3] = target: Muscarinic acetylcholine receptor M3 (Homo sapiens, UniProt P20309); assay: Inhibition of human muscarinic M3 receptor by cell based functional assay
[4] = target: Cytochrome P450 2C19 (Homo sapiens, UniProt P33261); assay: Inhibition of human CYP2C19; format: ADME
[5] = Oral bioavailability life in rat at 10 mg/kg; format: ADME, organism-based; conditions: in vivo
[6] = target: Cytochrome P450 2C9 (Homo sapiens, UniProt P11712); assay: Inhibition of human CYP2C9; format: ADME
[7] = Plasma clearance in rat at 3 mg/kg, iv or 10 mg/kg, po; format: ADME, organism-based
[8] = target: Cytochrome P450 2D6 (Homo sapiens, UniProt P10635); assay: Inhibition of human CYP2D6; format: ADME
[9] = Tmax in rat at 3 mg/kg, iv or 10 mg/kg, po; format: ADME, organism-based; conditions: in vivo
[10] = target: T3, Cytochrome P450 1A2 (Homo sapiens, UniProt P05177); assay: Inhibition of human CYP1A2; format: ADME
T3 sequence (P05177 whole entry): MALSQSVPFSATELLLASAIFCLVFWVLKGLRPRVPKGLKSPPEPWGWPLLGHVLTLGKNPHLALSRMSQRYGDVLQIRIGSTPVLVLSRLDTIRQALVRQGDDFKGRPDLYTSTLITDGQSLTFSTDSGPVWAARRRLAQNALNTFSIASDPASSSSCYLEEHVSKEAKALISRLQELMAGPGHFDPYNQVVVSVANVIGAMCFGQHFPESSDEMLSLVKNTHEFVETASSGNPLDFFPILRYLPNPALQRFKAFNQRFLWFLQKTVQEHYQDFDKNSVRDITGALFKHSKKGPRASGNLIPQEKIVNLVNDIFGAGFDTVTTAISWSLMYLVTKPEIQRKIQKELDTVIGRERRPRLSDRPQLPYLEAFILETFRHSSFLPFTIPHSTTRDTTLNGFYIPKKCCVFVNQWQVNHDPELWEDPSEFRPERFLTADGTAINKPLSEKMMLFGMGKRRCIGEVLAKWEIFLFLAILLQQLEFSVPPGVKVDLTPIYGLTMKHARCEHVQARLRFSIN

[11] = Half life in rat at 10 mg/kg, po; format: ADME, organism-based; parameters: dose 10 mg/kg, route oral; conditions: in vivo
[12] = Plasma protein binding in human plasma; format: ADME, cell-free; conditions: read-out: PPB (converted)
[13] = target: T4, Muscarinic acetylcholine receptor M4 (Homo sapiens, UniProt P08173); assay: Inhibition of human muscarinic M4 receptor by cell based functional assay
T4 sequence (P08173 whole entry): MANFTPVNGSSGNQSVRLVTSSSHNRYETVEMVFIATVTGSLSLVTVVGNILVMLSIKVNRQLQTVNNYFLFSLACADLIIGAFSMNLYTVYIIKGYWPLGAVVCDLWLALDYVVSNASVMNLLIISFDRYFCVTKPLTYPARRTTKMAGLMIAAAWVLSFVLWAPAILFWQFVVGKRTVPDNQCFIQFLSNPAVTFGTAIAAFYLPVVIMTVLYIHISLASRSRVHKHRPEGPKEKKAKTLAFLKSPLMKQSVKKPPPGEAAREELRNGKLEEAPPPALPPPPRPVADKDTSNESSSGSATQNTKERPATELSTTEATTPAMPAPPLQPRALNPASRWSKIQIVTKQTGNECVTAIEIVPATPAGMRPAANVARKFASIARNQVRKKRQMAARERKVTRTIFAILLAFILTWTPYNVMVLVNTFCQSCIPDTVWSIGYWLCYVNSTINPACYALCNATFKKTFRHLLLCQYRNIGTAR

[14] = target: Cytochrome P450 3A4 (Homo sapiens, UniProt P08684); assay: Inhibition of human CYP3A4; format: ADME
[15] = Volume of distribution at steady state in rat at 3 mg/kg, iv or 10 mg/kg, po; format: ADME, organism-based; conditions: in vivo, read-out: Vdss
[16] = Cmax in rat at 3 mg/kg, iv or 10 mg/kg, po; format: ADME, organism-based; conditions: in vivo
[17] = target: T5, Muscarinic acetylcholine receptor M2 (Homo sapiens, UniProt P08172); assay: Inhibition of human muscarinic M2 receptor by cell based functional assay
T5 sequence (P08172 whole entry): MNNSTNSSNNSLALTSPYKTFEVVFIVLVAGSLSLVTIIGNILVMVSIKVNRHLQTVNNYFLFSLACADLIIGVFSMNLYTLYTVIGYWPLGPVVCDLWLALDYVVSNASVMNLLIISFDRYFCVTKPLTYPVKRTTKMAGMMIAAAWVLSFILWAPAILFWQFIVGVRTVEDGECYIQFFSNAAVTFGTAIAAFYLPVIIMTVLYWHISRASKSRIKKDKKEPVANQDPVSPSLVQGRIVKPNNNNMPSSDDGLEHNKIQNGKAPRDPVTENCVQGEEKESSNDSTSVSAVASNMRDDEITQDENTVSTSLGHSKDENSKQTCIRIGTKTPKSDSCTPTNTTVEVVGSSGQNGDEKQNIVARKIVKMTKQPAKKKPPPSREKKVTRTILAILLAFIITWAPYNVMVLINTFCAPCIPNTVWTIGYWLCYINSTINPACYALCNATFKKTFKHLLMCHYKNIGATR

[18] = AUC in rat at 3 mg/kg, iv or 10 mg/kg, po; format: ADME, organism-based; conditions: plasma
[19] = target: Voltage-gated inwardly rectifying potassium channel KCNH2 (Homo sapiens, UniProt Q12809); assay: Inhibition of human ERG expressed in HEK293 cells at -80 mV holding potential assessed as reduction in tail current amplitude by conventional patch clamp assay; format: cell-based
[20] = target: Nitric oxide synthase, inducible (Homo sapiens, UniProt P35228); assay: Inhibition of human recombinant iNOS expressed in Sf9 cells assessed as reduction in conversion of [3H]L-arginine to [3H]L-citrulline preincubated for 15 mins by radiometric method
[21] = target: Nitric oxide synthase 1 (Homo sapiens, UniProt P29475); assay: Inhibition of human nNOS expressed in Sf9 cells assessed as reduction in conversion of [3H]L-arginine to [3H]L-citrulline preincubated for 15 mins by radiometric method
Sequence of Nitric oxide synthase 1 (P29475 whole entry): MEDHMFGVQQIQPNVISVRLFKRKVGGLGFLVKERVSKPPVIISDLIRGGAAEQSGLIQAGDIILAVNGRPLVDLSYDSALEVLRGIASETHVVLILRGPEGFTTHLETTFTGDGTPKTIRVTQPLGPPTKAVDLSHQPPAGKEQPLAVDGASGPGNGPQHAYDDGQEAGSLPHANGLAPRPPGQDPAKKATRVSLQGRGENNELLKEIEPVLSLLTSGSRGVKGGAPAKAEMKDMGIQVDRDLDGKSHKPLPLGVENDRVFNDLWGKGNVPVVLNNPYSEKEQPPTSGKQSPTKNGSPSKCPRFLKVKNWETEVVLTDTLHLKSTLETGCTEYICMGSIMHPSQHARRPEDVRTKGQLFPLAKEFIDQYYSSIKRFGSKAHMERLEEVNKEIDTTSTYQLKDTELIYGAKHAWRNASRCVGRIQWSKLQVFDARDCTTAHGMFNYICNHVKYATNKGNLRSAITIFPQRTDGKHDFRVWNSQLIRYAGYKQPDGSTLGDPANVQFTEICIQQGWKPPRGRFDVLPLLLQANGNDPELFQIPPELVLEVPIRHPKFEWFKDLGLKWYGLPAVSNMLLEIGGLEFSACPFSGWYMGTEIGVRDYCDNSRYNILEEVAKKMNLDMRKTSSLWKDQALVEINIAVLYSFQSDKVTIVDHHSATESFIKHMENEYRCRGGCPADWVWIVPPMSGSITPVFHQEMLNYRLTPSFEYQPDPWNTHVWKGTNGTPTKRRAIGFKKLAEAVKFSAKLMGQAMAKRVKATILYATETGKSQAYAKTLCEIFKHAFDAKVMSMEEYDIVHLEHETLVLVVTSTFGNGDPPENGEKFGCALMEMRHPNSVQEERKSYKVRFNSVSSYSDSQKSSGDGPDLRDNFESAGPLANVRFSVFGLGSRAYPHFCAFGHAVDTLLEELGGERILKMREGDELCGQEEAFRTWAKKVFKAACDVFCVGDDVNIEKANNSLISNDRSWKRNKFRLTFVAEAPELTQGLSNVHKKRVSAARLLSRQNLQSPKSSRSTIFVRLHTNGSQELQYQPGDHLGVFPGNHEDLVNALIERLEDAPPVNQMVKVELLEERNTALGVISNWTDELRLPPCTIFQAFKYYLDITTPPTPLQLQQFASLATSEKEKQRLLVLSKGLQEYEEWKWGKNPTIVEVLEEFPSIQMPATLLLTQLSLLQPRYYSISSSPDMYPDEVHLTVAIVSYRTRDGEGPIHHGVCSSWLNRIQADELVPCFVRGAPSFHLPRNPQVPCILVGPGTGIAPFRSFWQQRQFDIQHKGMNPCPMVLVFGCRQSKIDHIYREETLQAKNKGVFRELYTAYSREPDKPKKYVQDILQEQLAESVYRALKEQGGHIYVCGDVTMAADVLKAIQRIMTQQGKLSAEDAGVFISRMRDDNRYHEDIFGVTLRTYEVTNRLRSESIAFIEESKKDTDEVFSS

Sequence of Nitric oxide synthase, inducible (P35228 whole entry): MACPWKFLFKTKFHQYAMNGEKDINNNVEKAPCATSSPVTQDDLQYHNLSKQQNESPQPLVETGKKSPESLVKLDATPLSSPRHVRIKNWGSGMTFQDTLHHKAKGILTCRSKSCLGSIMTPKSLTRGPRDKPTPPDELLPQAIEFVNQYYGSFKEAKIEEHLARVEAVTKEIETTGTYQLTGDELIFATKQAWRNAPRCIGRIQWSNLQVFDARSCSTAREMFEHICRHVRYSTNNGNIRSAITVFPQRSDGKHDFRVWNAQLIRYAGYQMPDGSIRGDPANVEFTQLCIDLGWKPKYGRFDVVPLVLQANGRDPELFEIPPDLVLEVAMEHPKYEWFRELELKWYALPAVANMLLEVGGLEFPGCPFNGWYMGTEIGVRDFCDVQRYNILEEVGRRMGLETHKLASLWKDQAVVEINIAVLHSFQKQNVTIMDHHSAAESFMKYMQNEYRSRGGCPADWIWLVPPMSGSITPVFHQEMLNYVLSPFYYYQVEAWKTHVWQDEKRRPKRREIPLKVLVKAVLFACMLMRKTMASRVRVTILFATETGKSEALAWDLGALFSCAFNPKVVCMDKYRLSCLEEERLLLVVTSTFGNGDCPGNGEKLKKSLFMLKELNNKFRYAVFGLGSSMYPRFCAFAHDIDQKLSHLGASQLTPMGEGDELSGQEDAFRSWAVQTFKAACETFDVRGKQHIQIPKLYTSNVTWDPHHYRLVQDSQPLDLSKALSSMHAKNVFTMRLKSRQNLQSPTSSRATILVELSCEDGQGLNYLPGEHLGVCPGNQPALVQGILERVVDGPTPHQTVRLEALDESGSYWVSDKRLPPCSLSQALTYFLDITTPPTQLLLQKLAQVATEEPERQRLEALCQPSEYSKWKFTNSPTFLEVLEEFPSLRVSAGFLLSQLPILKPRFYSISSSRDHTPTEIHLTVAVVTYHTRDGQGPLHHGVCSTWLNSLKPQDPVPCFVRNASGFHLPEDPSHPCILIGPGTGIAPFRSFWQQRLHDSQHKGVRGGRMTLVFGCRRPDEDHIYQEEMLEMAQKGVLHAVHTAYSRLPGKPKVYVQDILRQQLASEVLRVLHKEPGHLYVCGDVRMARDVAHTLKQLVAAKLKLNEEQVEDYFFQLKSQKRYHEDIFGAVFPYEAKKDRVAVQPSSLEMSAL
Sequence of Voltage-gated inwardly rectifying potassium channel KCNH2 (Q12809 whole entry): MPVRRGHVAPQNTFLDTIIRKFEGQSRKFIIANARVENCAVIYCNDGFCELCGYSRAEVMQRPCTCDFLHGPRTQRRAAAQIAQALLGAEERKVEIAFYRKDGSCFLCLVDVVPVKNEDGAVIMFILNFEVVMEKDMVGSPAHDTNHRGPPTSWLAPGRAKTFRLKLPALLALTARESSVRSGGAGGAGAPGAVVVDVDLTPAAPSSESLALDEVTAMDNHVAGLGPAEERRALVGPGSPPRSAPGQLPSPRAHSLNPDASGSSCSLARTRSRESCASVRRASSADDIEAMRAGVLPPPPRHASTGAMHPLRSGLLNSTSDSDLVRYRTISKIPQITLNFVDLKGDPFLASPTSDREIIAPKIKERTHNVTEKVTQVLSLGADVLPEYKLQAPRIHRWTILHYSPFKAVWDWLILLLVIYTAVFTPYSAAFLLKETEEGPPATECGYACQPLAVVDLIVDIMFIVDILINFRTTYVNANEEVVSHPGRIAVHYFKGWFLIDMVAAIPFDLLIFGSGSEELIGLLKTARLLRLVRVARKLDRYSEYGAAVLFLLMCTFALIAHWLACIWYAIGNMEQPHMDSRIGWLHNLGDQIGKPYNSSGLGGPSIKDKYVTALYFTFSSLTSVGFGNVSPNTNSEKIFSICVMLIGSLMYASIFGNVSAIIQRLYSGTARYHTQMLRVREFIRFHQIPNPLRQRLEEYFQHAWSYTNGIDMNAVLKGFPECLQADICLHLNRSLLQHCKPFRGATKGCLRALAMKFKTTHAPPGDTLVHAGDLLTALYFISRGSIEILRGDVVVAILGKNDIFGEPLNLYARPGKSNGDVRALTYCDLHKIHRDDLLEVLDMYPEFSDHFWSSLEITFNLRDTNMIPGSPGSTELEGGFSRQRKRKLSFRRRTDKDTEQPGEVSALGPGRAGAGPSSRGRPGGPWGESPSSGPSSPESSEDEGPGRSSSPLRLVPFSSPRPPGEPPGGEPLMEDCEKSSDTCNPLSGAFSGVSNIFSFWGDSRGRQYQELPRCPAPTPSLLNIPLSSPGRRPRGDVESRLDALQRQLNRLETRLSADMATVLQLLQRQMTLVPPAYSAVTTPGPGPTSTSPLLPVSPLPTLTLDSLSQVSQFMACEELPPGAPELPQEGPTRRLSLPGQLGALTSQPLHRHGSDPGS
Sequence of Cytochrome P450 2D6 (P10635 whole entry): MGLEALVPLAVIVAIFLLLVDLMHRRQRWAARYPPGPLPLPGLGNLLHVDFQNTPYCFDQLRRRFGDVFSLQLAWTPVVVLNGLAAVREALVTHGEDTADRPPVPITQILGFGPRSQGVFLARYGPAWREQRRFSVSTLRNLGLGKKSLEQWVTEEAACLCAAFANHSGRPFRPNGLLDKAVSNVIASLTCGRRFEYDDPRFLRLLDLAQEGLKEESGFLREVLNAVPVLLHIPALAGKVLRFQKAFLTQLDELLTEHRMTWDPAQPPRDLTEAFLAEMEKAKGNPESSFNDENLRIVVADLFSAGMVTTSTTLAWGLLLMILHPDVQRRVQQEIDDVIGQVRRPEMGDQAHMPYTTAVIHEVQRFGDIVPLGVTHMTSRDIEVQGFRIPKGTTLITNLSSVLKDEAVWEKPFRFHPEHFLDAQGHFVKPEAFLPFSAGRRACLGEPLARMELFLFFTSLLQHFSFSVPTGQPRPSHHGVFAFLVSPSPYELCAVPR
Sequence of Cytochrome P450 2C9 (P11712 whole entry): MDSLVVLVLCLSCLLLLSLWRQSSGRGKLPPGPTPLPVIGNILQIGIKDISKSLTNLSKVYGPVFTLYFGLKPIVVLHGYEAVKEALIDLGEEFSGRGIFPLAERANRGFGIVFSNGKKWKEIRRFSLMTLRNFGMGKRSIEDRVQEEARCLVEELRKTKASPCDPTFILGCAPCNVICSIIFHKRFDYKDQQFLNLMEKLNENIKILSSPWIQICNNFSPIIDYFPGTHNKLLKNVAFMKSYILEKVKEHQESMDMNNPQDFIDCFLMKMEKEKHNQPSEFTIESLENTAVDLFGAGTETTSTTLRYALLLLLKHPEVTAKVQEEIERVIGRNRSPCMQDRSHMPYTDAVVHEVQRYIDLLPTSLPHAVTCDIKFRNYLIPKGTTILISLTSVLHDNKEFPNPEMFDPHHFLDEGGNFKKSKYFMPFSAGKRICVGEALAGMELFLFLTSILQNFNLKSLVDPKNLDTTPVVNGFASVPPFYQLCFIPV

Compound: CN1CCC[C@H]1CCN1CCCc2cc(NC(=N)c3cccs3)ccc21
- IC50 [19]: 4.7 µM

Compound: CCN(C)CCN1CCCc2cc(NC(=N)c3cccs3)ccc21
- IC50 [20]: > 100 µM
- IC50 [21]: 0.097 µM
- IC50 [19]: 4.5 µM

Continued, in another order:

- EC50 [1]: > 40 µM
- EC50 [2]: > 40 µM
- EC50 [3]: > 40 µM
- inhibition (INH) [4]: Not Active
- bioavailability [5]: 59.9%
- inhibition (INH) [6]: Not Active
- clearance [7]: 87.7 mL/min/kg
- inhibition (INH) [8]: Not Active
- Tmax [9]: 2 h
- inhibition (INH) [10]: Not Active
- half-life [11]: 8.1 h
- fraction unbound [12]: 0.6
- EC50 [13]: > 40 µM
- inhibition (INH) [14]: Not Active
- Vd [15]: 83.9 L/kg
- Cmax [16]: 880 nM
- EC50 [17]: > 40 µM
- AUC [18]: 1160 ng·h/mL
Compound: CNCCN1CCCc2cc(NC(=N)c3cccs3)ccc21

- IC50 [20]: 89.4 µM
- IC50 [21]: 0.267 µM
Compound: CC(C)NCCN1CCCc2cc(NC(=N)c3cccs3)ccc21
- IC50 [19]: 27.5 µM

- IC50 [20]: > 100 µM
Compound: CNCCCN1CCCc2cc(NC(=N)c3cccs3)ccc21
- IC50 [19]: > 30 µM
